Patent publication US7632855B2, “Pyrazole compounds as HSP90 inhibitors for the treatment of cancer” (Vernalis (Cambridge) Limited, priority 2003, dated 2009)

target: T1, human full-length HSP90 (Homo sapiens, UniProt P08238); assay: Fluorescence Polarisation Assay (competitive displacement of probe RBT0045864-FAM from HSP90); format: binding; details: E. coli expressed human full-length Hsp90 200 nM; probe RBT0045864-FAM 80 nM; read-out: Hsp90 FP IC50
T1 construct: E. coli expressed human full-length HSP90 protein, purified >95%; made in house; host or cells: E. coli
Text: Fluorescence Polarization Assay
Fluorescence polarization {also known as fluorescence anisotropy} measures the rotation of a fluorescing species in solution, where the larger molecule the more polarized the fluorescence emission. When the fluorophore is excited with polarized light, the emitted light is also polarized. The molecular size is proportional to the polarization of the fluorescence emission. The fluoroscein-labelled probe—RBT0045864-FAM—binds to HSP90 {full-length human, full-length yeast or N-terminal domain HSP90 } and the anisotropy {rotation of the probe-protein complex} is measured.
Compound is added to the assay plate, left to equilibrate and the anisotropy measured again. Any change in anisotropy is due to competitive binding of compound to HSP90, thereby releasing probe.
Chemicals are of the highest purity commercially available and all aqueous solutions are made up in AR water. • 1) Costar 96-well black assay plate #3915 • 2) Assay buffer of (a) 100 mM Tris pH7.4; (b) 20 mM KCl; (c) 6mM MgCl2. Stored at room temperature. • 3) BSA (bovine serum albumen) 10 mg/ml (New England Biolabs # B9001S) • 4) 20 mM RBT0045864 (pyrazole) in 100% DMSO stock concentration. Stored in the dark at RT. Made in-house, Kd^˜[…], depending on the protein used. Working concentration is 200 nM diluted in AR water and stored at 4° C. Final concentration in assay 80 nM. • 5) E. coli expressed human full-length HSP90 protein, purified >95% (see, e.g., Panaretou et al., EMBO J., Vol. 17, pp. 4829-4836, 1998) and stored in 50 μL aliquots at −80° C. Protocol • 1) Add 100 μl 1× buffer to wells 11A and 12A (=FP BLNK) • 2) Prepare assay mix—all reagents are kept on ice with a lid on the bucket as the probe is light-sensitive.
• 3) Aliquot 100 μl assay mix to all other wells • 4) Seal plate and leave in dark at room temp for 20 minutes to equilibrate Compound Dilution Plate—1×3 Dilution Series • 1) In a clear 96-well v-bottom plate—{# VWR 007/008/257} add 10 μl 100% DMSO to wells B1 to H11 • 2) To wells A1 to A11 add 17.5 μl 100% DMSO • 3) Add 2.5 μl cpd to A1. This gives 2.5 mM {50×} stock cpd—assuming cpds 20 mM. • 4) Repeat for wells A2 to A10. Control in columns 11 and 12. • 5) Transfer 5 μl from row A to row B—not column 12. Mix well. • 6) Transfer 5 μl from row B to row C. […] In column 11 {provides standard curve} only add compound B11-H11. Add 2 μl of 100 mM standard cpd to wells B12-H12 {is positive control}
The Z′ factor is calculated from zero controls and positive wells. It typically gives a value of 0.7-0.9.

T1 sequence (P08238 whole entry): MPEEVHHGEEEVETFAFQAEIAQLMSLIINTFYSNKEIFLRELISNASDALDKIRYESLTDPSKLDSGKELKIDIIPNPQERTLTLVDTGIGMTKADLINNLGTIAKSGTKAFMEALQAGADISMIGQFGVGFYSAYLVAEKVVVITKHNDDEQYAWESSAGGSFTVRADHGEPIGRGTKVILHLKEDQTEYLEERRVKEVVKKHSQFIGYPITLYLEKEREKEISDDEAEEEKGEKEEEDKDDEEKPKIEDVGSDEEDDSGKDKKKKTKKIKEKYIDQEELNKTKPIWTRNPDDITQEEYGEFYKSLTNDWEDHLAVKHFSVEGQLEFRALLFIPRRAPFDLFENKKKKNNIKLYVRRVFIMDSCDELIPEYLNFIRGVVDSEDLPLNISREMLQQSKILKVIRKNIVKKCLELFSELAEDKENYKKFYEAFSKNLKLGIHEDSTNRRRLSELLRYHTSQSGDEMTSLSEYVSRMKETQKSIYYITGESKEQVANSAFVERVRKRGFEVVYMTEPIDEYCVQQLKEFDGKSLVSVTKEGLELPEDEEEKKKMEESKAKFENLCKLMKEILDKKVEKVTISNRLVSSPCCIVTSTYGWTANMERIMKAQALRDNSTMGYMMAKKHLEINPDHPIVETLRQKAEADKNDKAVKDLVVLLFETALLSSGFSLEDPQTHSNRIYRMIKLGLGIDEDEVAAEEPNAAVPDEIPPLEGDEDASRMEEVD

Row | SMILES | IC50
1 | COc1ccc(-c2c(-c3cc(Cl)c(O)cc3O)n[nH]c2C(=O)N[C@H](C)C(=O)NCCN(C)C)cc1 [Example 15] | < 10 µM
2 | COC(=O)[C@H](C)NC(=O)c1[nH]nc(-c2cc(Cl)c(O)cc2O)c1-c1ccc(OC)cc1 [Example 8] | < 10 µM
3 | COc1ccc(-c2c(-c3cc(Cl)c(O)cc3O)n[nH]c2C(=O)N[C@H](C)C(=O)NCCN2CCOCC2)cc1 [Example 16] | < 10 µM
4 | COc1ccc(-c2c(-c3cc(Cl)c(O)cc3O)n[nH]c2C(=O)N[C@H](C)C(N)=O)cc1 [Example 9] | < 10 µM
5 | COc1ccc(-c2c(-c3cc(Cl)c(O)cc3O)n[nH]c2C(=O)N[C@H](C)C(=O)NC(C)C)cc1 [Example 14] | < 10 µM
6 | CNC(=O)[C@@H](C)NC(=O)c1[nH]nc(-c2cc(Cl)c(O)cc2O)c1-c1ccc(OC)cc1 [Example 13] | < 10 µM
7 | COC(=O)[C@@H](C)NC(=O)c1[nH]nc(-c2cc(Cl)c(O)cc2O)c1-c1ccc(OC)cc1 [Example 7] | < 10 µM
8 | COc1ccc(-c2c(-c3cc(Cl)c(O)cc3O)n[nH]c2C(=O)N[C@@H](C)C(N)=O)cc1 [Example 10] | < 10 µM
9 | COc1ccc(-c2c(-c3cc(Cl)c(O)cc3O)n[nH]c2C(=O)N[C@H](C)C(=O)N2CCN(C)CC2)cc1 [Example 12] | < 10 µM
10 | COC(=O)C(C)NC(=O)c1[nH]nc(-c2cc(Cl)c(O)cc2O)c1-c1ccc(OC)cc1 (stereo not shown) [Example 3] | < 10 µM
11 | CCNC(=O)[C@@H](C)NC(=O)c1[nH]nc(-c2cc(Cl)c(O)cc2O)c1-c1ccc(OC)cc1 [Example 18] | < 10 µM
12 | COC(=O)CNC(=O)c1[nH]nc(-c2cc(Cl)c(O)cc2O)c1-c1ccc(OC)cc1 [Example 6] | < 10 µM
13 | COc1ccc(-c2c(-c3cc(Cl)c(O)cc3O)n[nH]c2C(=O)NC(C)C(=O)O)cc1 (stereo not shown) [Example 4] | < 10 µM
